17 compounds from patent publication US7220768B2, “Isoxazole-containing thiourea inhibitors useful for treatment of varicella zoster virus” (Wyeth Holdings Corp., priority 2003, dated 2007) can be followed below.

The structures appear in SMILES notation. ≈ marks a conversion by molar mass, not a printed value. Some results are limits rather than exact numbers.

The subject of experiment [1] is HCMV. The experiment is described as follows: Human cytomegalovirus yield / microtiter plate assay. Format: cell-based. The note with it: human foreskin fibroblasts; for IC50: Human betaherpesvirus 5, Fibroblast. The procedure: Yield Assay. Monolayer cultures of human foreskin fibroblasts are infected with HCMV wild-type virus, typically at a multiplicity of infection equal to 0.2, in the presence of inhibitors compound (varying concentrations). At three days post-infection, total virus produced in these cultures (i.e. virus yield) is assessed by harvesting and titering the virus in 12-well plates of cultured human foreskin fibroblasts (done in the absence of inhibitors). Plaques are quantified at 2 weeks post-infection. An inhibitor of HCMV is identified by the reduction in titer of virus yield in the presence, compared to the titer in the absence of compound. In this assay, the relative anti-HCMV activity of an inhibitor is typically determined by calculating the IC50 or IC90 value, that is, the amount of compound required to reduce the virus yield by 50% or 90%, respectively. Table 2 describes IC50 data for compounds tested against HCMV.
Microtiter Plate Assay. Ninety-six well plate cultures of human foreskin fibroblasts are infected in the presence of inhibitor compound with a HCMV recombinant mutant virus whose genome contains the prokaryotic beta-glucuronidase gene (Jefferson, R. A., S. M. Burgess, and D. Hirsh. 1986. Beta-glucuronidase from Escherichia coli as a gene fusion marker. Proc. Natl. Acad. Sci. USA 83:8447–8451) whose expression is controlled by a viral promoter. An example of such a virus is RV145 [T. R. Jones; V. P. Muzithras, and Y. Gluzman. 1991, Replacement mutagenesis of the human cytomegalovirus genome: US10 and US11 gene products are nonessential, J. Virol. 65:5860–5872]. Since it is under the control of a viral promoter, beta-glucuronidase expression is an indirect indicator of growth and replication of HCMV in this assay. At 96 hours post-infection, the infected cell lysates are prepared (using 50 mM sodium phosphate [pH 7.0] containing 0.1% Triton X-100 and 0.1% sarkosyl) and assayed for beta-glucuronidase activity using a substrate for the enzyme which when cleaved yields either a product which can be measured colorimetrically in a spectrophotometer or fluorescently in a microfluorimeter. Examples of such substrates are p-nitrophenyl-beta-D-glucuronide and methylumbelliferylglucuronide, respectively. The presence of an antiviral compound is indicated by the reduced expression of the HCMV genome resident beta-glucuronidase gene, compared to the absence of inhibitor. […] Data from this assay generated using varying amounts of inhibitor compound is also used to estimate the IC50 of an inhibitor compound.

The nature of experiment [2]: MTS assay (Table 2). Format: cell-based.
Experiment [3] relates to HSV. Nature of the experiment: HSV Antiviral (ELISA) Assay. Format: cell-based, herpes simplex virus. The settings on record: Vero cells. Here is the method:
HSV Antiviral (ELISA) Assay. Vero cells (ATCC #CCL-81) are plated on 96-well tissue culture plates at 3.5×10^4 cells per 100 μl tissue culture DMEM (Dulbecco's modified Eagle media) supplemented with 2% fetal bovine serum (FBS) in each well. After overnight incubation, inhibition was determined by comparing the fluorescence obtained in absence of compound to that obtained in the presence of compound.
In general terms: In an ELISA, binding on a coated surface is turned into a signal by an enzyme label.

For experiment [4], the system named is RSV. The experiment is described as follows: RSV antiviral assay (Table 2). The format is cell-based. The settings on record: for IC50: human respiratory syncytial virus.
Experiment [5] concerns VZV. The experiment is described as follows: VZV antiviral assay (Table 2). Format: cell-based, varicella zoster virus. The note with it: for IC50: Human alphaherpesvirus 3.

By IC50 is commonly meant the concentration needed to halve the response being measured. A higher IC50 goes with weaker potency in that assay.

As to `CC(NC(=S)Nc1ccc(-c2nocc2CO)cc1)c1ccc(F)cc1` (stereo not shown) [Example 9, 1-[1-(4-Fluorophenyl)ethyl]-3-[4-(4-hydroxymethylisoxazol-3-yl)phenyl]thiourea], the half-inhibitory concentration (IC50) in experiment [1] is 5.7 µg/mL (≈ 15.3 µM); in experiment [2] it was > 15 µg/mL; in experiment [3], > 10 µg/mL; in experiment [4], 7.2 µg/mL (≈ 19.4 µM); in experiment [5] it was 2 µg/mL (≈ 5.38 µM).
In the case of `CC(NC(=S)Nc1ccc(-c2nocc2Cc2ccccc2)cc1)c1ccc(F)cc1` (stereo not shown) [Example 10, 1-[4-(4-Benzylisoxazol-3-yl)phenyl]-3-[1-(4-fluorophenyl)ethyl]thiourea], the IC50 is 2.4 µg/mL (≈ 5.56 µM) in experiment [1]; > 15 µg/mL in experiment [2]; > 10 µg/mL in experiment [3]; > 10 µg/mL in experiment [4]; 0.086 µg/mL (≈ 0.199 µM) in experiment [5].
For the compound `CC(NC(=S)Nc1ccc(-c2nocc2Cc2ccc(F)cc2)cc1)c1ccc(F)cc1` (stereo not shown) [Example 11, 1-{4-[4-(4-Fluorobenzyl)isoxazol-3-yl]phenyl}-3-[1-(4-fluorophenyl)ethyl]thiourea], the IC50 was 1.8 µg/mL (≈ 4 µM) in experiment [1]; 1.9 µg/mL (≈ 4.23 µM) in experiment [2]; 2.1 µg/mL (≈ 4.67 µM) in experiment [3]; 4.7 µg/mL (≈ 10.5 µM) in experiment [4]; 0.16 µg/mL (≈ 0.356 µM) in experiment [5].
In the case of `CC(NC(=S)Nc1ccc(-c2nocc2-c2ccccc2)cc1)c1ccc(F)cc1` (stereo not shown) [Example 12, 1-[1-(4-Fluoropheny)ethyl]-3-[4-(4-phenylisoxazol-3-yl)phenyl]thiourea], the “IC50 CMV” value in experiment [1] was >10 µg/mL. Also, in experiment [2], the “IC50 MTS” value was >15 µg/mL. For the same compound, the “IC50 HSV” value in experiment [3] was >10 µg/mL. Moreover, the “IC50 RSV” value in experiment [4] is >10 µg/mL. Besides, the “IC50 VZV” value in experiment [5] was 0.37 µg/mL (≈ 0.886 µM).
As to `CC(NC(=S)Nc1ccc(-c2nocc2C(C)(C)C)cc1)c1ccc(F)cc1` (stereo not shown) [Example 13, 1-[4-(4-tert-Butylisoxazol-3-yl)phenyl]-3-[1-(4-fluorophenyl)ethyl]thiourea], the half-inhibitory concentration (IC50) in experiment [1] was 1.3 µg/mL (≈ 3.27 µM); in experiment [2] it was 1.5 µg/mL (≈ 3.77 µM); in experiment [3] it was 2.3 µg/mL (≈ 5.79 µM); in experiment [4], 2.1 µg/mL (≈ 5.28 µM); in experiment [5], 0.23 µg/mL (≈ 0.579 µM).
On the same counts, the results for `CC(NC(=S)Nc1ccc(-c2nocc2-c2ccccc2F)cc1)c1ccc(F)cc1` (stereo not shown) [Example 14, 1-[1-(4-Fluorophenyl)ethyl]-3-{4-[4-(2-fluorophenyl)isoxazol-3-yl]phenyl}thiourea] are > 10 µg/mL, > 15 µg/mL, > 10 µg/mL, > 10 µg/mL and 5.4 µg/mL (≈ 12.4 µM).
The matching figures for `CC(NC(=S)Nc1ccc(-c2conc2-c2cccnc2)cc1)c1ccc(F)cc1` (stereo not shown) [Example 15, N-[1-(4-Fluorophenyl)ethyl]-N′-{4-[3-(3-pyridinyl)-4-isoxazolyl]phenyl}thiourea]: > 10 µg/mL, 14 µg/mL (≈ 33.5 µM), 3.1 µg/mL (≈ 7.41 µM), > 10 µg/mL and 0.19 µg/mL (≈ 0.454 µM).
As for `CC(NC(=S)Nc1ccc(-c2conc2-c2ccnc3ccccc23)cc1)c1ccc(F)cc1` (stereo not shown) [Example 16, N-[1-(4-Fluorophenyl)ethyl]-N′-{4-[3-(4-quinolinyl)-4-isoxazolyl]phenyl}thiourea], the half-maximal inhibitory concentration (IC50) in experiment [1] was determined as 0.8 µg/mL (≈ 1.71 µM); in experiment [2] it was 6.5 µg/mL (≈ 13.9 µM); in experiment [3], 3.1 µg/mL (≈ 6.62 µM); in experiment [4], 2.3 µg/mL (≈ 4.91 µM); in experiment [5], 0.08 µg/mL (≈ 0.171 µM).
Take `CC(NC(=S)Nc1ccc(-c2conc2-c2ccncc2)cc1)c1ccc(F)cc1` (stereo not shown) [Example 17, N-[1-(4-Fluorophenyl)ethyl]-N′-{4-[3-(4-pyridinyl)-4-isoxazolyl]phenyl}thiourea]: the IC50 in experiment [1] stood at 0.93 µg/mL (≈ 2.22 µM); in experiment [2], 5.5 µg/mL (≈ 13.1 µM); in experiment [3], 3.7 µg/mL (≈ 8.84 µM); in experiment [4] it was 1.5 µg/mL (≈ 3.58 µM); in experiment [5], 0.14 µg/mL (≈ 0.335 µM).
On to `CC(NC(=S)Nc1ccc(-c2conc2-c2ccc(N)cc2)cc1)c1ccc(F)cc1` (stereo not shown) [Example 18, N-{4-[3-(4-Aminophenyl)-4-isoxazolyl]phenyl}-N′-[1-(4-fluorophenyl)ethyl]thiourea], for which the IC50 in experiment [1] is 2 µg/mL (≈ 4.62 µM); in experiment [2] it was 13 µg/mL (≈ 30.1 µM); in experiment [3] it was > 10 µg/mL; in experiment [4], > 10 µg/mL; in experiment [5], 0.05 µg/mL (≈ 0.116 µM).
In the case of `CC(NC(=S)Nc1ccc(-c2conc2-c2csnn2)cc1)c1ccc(F)cc1` (stereo not shown) [Example 19, N-[1-(4-Fluorophenyl)ethyl]-N′-{4-[3-(1,2,3-thiadiazol-4-yl)-4-isoxazolyl]phenyl}thiourea], the IC50 in experiment [1] was 0.9 µg/mL (≈ 2.12 µM); in experiment [2] it was > 15 µg/mL; in experiment [3], > 10 µg/mL; in experiment [4], > 10 µg/mL; in experiment [5], 0.13 µg/mL (≈ 0.306 µM).
In the case of `CC(NC(=S)Nc1ccc(-c2conc2-c2ccccn2)cc1)c1ccc(F)cc1` (stereo not shown) [Example 20, N-[1-(4-Fluorophenyl)ethyl]-N′-{4-[3-(2-pyridinyl)-4-isoxazolyl]phenyl}thiourea], the IC50 in experiment [1] was > 10 µg/mL; in experiment [2], > 15 µg/mL; in experiment [3] it was > 10 µg/mL; in experiment [4] it was > 10 µg/mL; in experiment [5] it was 0.18 µg/mL (≈ 0.43 µM).
As to `CC(NC(=S)Nc1ccc(-c2conc2-c2ccc(N(C)C)cc2)cc1)c1ccc(F)cc1` (stereo not shown) [Example 21, N-(4-{3-[4-(Dimethylamino)phenyl]-4-isoxazolyl}phenyl)-N′-[1-(4-fluorophenyl)ethyl]thiourea], the 50% inhibitory concentration (IC50) in experiment [1] was 9.3 µg/mL (≈ 20.2 µM); in experiment [2], > 15 µg/mL; in experiment [3], > 10 µg/mL; in experiment [4] it was > 10 µg/mL; in experiment [5], 0.34 µg/mL (≈ 0.738 µM).
In the case of `CC(NC(=S)Nc1ccc(-c2conc2-c2ccc(O)cc2)cc1)c1ccc(F)cc1` (stereo not shown) [Example 22, N-[1-(4-Fluorophenyl)ethyl]-N′-{4-[3-(4-hydroxyphenyl)-4-isoxazolyl]phenyl}thiourea], the IC50 in experiment [1] was 2.5 µg/mL (≈ 5.77 µM); in experiment [2], > 15 µg/mL; in experiment [3], > 10 µg/mL; in experiment [4], 9.9 µg/mL (≈ 22.8 µM); in experiment [5] it was 0.61 µg/mL (≈ 1.41 µM).
With `CC(NC(=S)Nc1ccc(-c2conc2-c2ccccc2)cc1)c1ccc(F)cc1` (stereo not shown) [Example 23, N-[1-(4-Fluorophenyl)ethyl]-N′-[4-(3-phenyl-4-isoxazolyl)phenyl]thiourea], the IC50 in experiment [1] was > 10 µg/mL; in experiment [2], > 15 µg/mL; in experiment [3], > 10 µg/mL; in experiment [4] it was > 10 µg/mL; in experiment [5], 0.89 µg/mL (≈ 2.13 µM).
As to `CC(NC(=S)Nc1ccc(-c2conc2-c2ncc[nH]2)cc1)c1ccc(F)cc1` (stereo not shown) [Example 24, N-[1-(4-Fluorophenyl)ethyl]-N′-{4-[3-(1 H-imidazol-2-yl)-4-isoxazolyl]phenyl}thiourea], the half-inhibitory concentration (IC50) in experiment [1] is > 10 µg/mL; in experiment [2] it was > 15 µg/mL; in experiment [3] it was > 10 µg/mL; in experiment [4] it was > 10 µg/mL; in experiment [5], 1 µg/mL (≈ 2.45 µM).
Turning to `CC(NC(=S)Nc1ccc(-c2conc2-c2ccccc2O)cc1)c1ccc(F)cc1` (stereo not shown) [Example 25, N-[1-(4-Fluorophenyl)ethyl]-N′-{4-[3-(2-hydroxyphenyl)-4-isoxazolyl]phenyl}thiourea], the concentration for half-maximal inhibition (IC50) in experiment [1] is 7.9 µg/mL (≈ 18.2 µM); in experiment [2], > 15 µg/mL; in experiment [3], > 10 µg/mL; in experiment [4] it was > 10 µg/mL; in experiment [5], 1.9 µg/mL (≈ 4.38 µM).
